Measurements taken from PubChem BioAssay (NCI).
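96-well plates; 48 h exposure; 5 concentrations. Endpoints by linear interpolation between flanking doses. Not reached: highest tested concentration assigned. At the TGI there is no net growth.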

Columns and labels:
Assay in all cases: NCI tumour cell line growth inhibition, 48 h
786-0 renal = test system: 786-0 renal
A498 renal = test system: A498 renal
A549 NSCLC = test system: A549 NSCLC
ACHN renal = test system: ACHN renal
BT-549 breast = test system: BT-549 breast
CAKI-1 renal = test system: CAKI-1 renal
CCRF-CEM leukemia = test system: CCRF-CEM leukemia
COLO 205 colon = test system: COLO 205 colon
DU-145 prostate = test system: DU-145 prostate
EKVX NSCLC = test system: EKVX NSCLC
HCC-2998 colon = test system: HCC-2998 colon
HCT-116 colon = test system: HCT-116 colon
HCT-15 colon = test system: HCT-15 colon
HL-60(TB) leukemia = test system: HL-60(TB) leukemia
HOP-62 NSCLC = test system: HOP-62 NSCLC
HOP-92 NSCLC = test system: HOP-92 NSCLC
HS 578T breast = test system: HS 578T breast
HT29 colon = test system: HT29 colon
IGROV1 ovarian = test system: IGROV1 ovarian
K-562 leukemia = test system: K-562 leukemia
KM12 colon = test system: KM12 colon
LOX IMVI melanoma = test system: LOX IMVI melanoma
M14 melanoma = test system: M14 melanoma
MALME-3M melanoma = test system: MALME-3M melanoma
MCF7 breast = test system: MCF7 breast
MDA-MB-231 breast = test system: MDA-MB-231 breast
MDA-MB-435 = test system: MDA-MB-435
MDA-N = test system: MDA-N
MOLT-4 leukemia = test system: MOLT-4 leukemia
NCI-H226 lung = test system: NCI-H226 lung
NCI-H23 lung = test system: NCI-H23 lung
NCI-H460 lung = test system: NCI-H460 lung
NCI-H522 lung = test system: NCI-H522 lung
NCI/ADR-RES ovarian = test system: NCI/ADR-RES ovarian
OVCAR-3 ovarian = test system: OVCAR-3 ovarian
OVCAR-4 ovarian = test system: OVCAR-4 ovarian
OVCAR-5 ovarian = test system: OVCAR-5 ovarian
OVCAR-8 ovarian = test system: OVCAR-8 ovarian
PC-3 prostate = test system: PC-3 prostate
RPMI-8226 leukemia = test system: RPMI-8226 leukemia
RXF 393 renal = test system: RXF 393 renal
SF-268 CNS = test system: SF-268 CNS
SF-295 CNS = test system: SF-295 CNS
SF-539 CNS = test system: SF-539 CNS
SK-MEL-2 melanoma = test system: SK-MEL-2 melanoma
SK-MEL-28 melanoma = test system: SK-MEL-28 melanoma
SK-MEL-5 melanoma = test system: SK-MEL-5 melanoma
SK-OV-3 ovarian = test system: SK-OV-3 ovarian
SN12C renal = test system: SN12C renal
SNB-19 CNS = test system: SNB-19 CNS
SNB-75 CNS = test system: SNB-75 CNS
SR leukemia = test system: SR leukemia
SW-620 colon = test system: SW-620 colon
T-47D breast = test system: T-47D breast
TK-10 renal = test system: TK-10 renal
U251 CNS = test system: U251 CNS
UACC-257 melanoma = test system: UACC-257 melanoma
UACC-62 melanoma = test system: UACC-62 melanoma
UO-31 renal = test system: UO-31 renal

Compound `COc1ccc(/C=N/c2nc3cc4sc(/N=C/c5ccc(OC)cc5)nc4cc3s2)cc1` has a TGI (786-0 renal) of over 100 µM, a TGI (A498 renal) of over 100 µM and a TGI (A549 NSCLC) of over 100 µM. For the same compound, the TGI (ACHN renal) was over 100 µM, the TGI (BT-549 breast) was over 100 µM and the TGI (CAKI-1 renal) was over 100 µM. For the same compound, the TGI (CCRF-CEM leukemia) was over 45.2 µM, the TGI (COLO 205 colon) was over 22.4 µM and the TGI (DU-145 prostate) was over 100 µM. The TGI (EKVX NSCLC) was over 100 µM, the TGI (HCC-2998 colon) was 71.4 µM and the TGI (HCT-116 colon) was over 100 µM. It also gave a TGI (HCT-15 colon) of over 100 µM, a TGI (HL-60(TB) leukemia) of over 100 µM and a TGI (HOP-62 NSCLC) of over 100 µM. For the same compound, the TGI (HOP-92 NSCLC) was over 100 µM, the TGI (HS 578T breast) was over 81.8 µM and the TGI (HT29 colon) was over 100 µM. For the same compound, the TGI (IGROV1 ovarian) was over 100 µM, the TGI (K-562 leukemia) was over 100 µM and the TGI (KM12 colon) was over 100 µM. For the same compound, the TGI (LOX IMVI melanoma) was over 100 µM, the TGI (M14 melanoma) was over 100 µM and the TGI (MALME-3M melanoma) was over 100 µM. The TGI (MCF7 breast) was over 88.9 µM, the TGI (MDA-MB-231 breast) was over 100 µM and the TGI (MDA-MB-435) was 99.5 µM. For the same compound, the TGI (MDA-N) was over 100 µM, the TGI (MOLT-4 leukemia) was over 100 µM and the TGI (NCI-H226 lung) was over 77.8 µM. For the same compound, the TGI (NCI-H23 lung) was 97.7 µM, the TGI (NCI-H460 lung) was over 100 µM and the TGI (NCI-H522 lung) was over 52.7 µM. It also gave a TGI (NCI/ADR-RES ovarian) of over 100 µM, a TGI (OVCAR-3 ovarian) of over 100 µM and a TGI (OVCAR-4 ovarian) of over 100 µM. For the same compound, the TGI (OVCAR-5 ovarian) was over 100 µM, the TGI (OVCAR-8 ovarian) was over 100 µM and the TGI (PC-3 prostate) was over 100 µM. It also gave a TGI (RPMI-8226 leukemia) of over 100 µM, a TGI (RXF 393 renal) of over 100 µM and a TGI (SF-268 CNS) of over 100 µM. The TGI (SF-295 CNS) was over 100 µM, the TGI (SF-539 CNS) was over 100 µM and the TGI (SK-MEL-2 melanoma) was over 100 µM. The TGI (SK-MEL-28 melanoma) was over 100 µM, the TGI (SK-MEL-5 melanoma) was over 100 µM and the TGI (SK-OV-3 ovarian) was over 100 µM. It also gave a TGI (SN12C renal) of over 100 µM, a TGI (SNB-19 CNS) of over 100 µM and a TGI (SNB-75 CNS) of over 100 µM. The TGI (SR leukemia) was over 100 µM, the TGI (SW-620 colon) was over 100 µM and the TGI (T-47D breast) was over 100 µM. For the same compound, the TGI (TK-10 renal) was over 94.8 µM, the TGI (U251 CNS) was over 100 µM and the TGI (UACC-257 melanoma) was over 100 µM. The TGI (UACC-62 melanoma) was over 100 µM and the TGI (UO-31 renal) was over 100 µM.
With `CC1=NN(c2nc(N)nc(C(C#N)C(=O)c3cc4c(cc3Cl)Sc3nccn3S4(=O)=O)n2)C(C)(C)C1` (stereo not drawn) the TGI (786-0 renal) was 34 µM, the TGI (A498 renal) was over 100 µM and the TGI (A549 NSCLC) was over 100 µM. For the same compound, the TGI (ACHN renal) was over 100 µM, the TGI (BT-549 breast) was 98.6 µM and the TGI (CAKI-1 renal) was over 100 µM. For the same compound, the TGI (CCRF-CEM leukemia) was 50.3 µM, the TGI (COLO 205 colon) was over 100 µM and the TGI (DU-145 prostate) was 94.4 µM. It also gave a TGI (EKVX NSCLC) of over 100 µM, a TGI (HCC-2998 colon) of 33.8 µM and a TGI (HCT-116 colon) of over 100 µM. The TGI (HCT-15 colon) was 67.3 µM, the TGI (HL-60(TB) leukemia) was 61.1 µM and the TGI (HOP-62 NSCLC) was over 100 µM. The TGI (HOP-92 NSCLC) was over 100 µM, the TGI (HS 578T breast) was over 100 µM and the TGI (HT29 colon) was over 100 µM. The TGI (IGROV1 ovarian) was over 100 µM, the TGI (K-562 leukemia) was over 100 µM and the TGI (KM12 colon) was over 100 µM. For the same compound, the TGI (LOX IMVI melanoma) was over 100 µM, the TGI (M14 melanoma) was over 100 µM and the TGI (MALME-3M melanoma) was 48.5 µM. It also gave a TGI (MCF7 breast) of over 100 µM, a TGI (MDA-MB-231 breast) of 55 µM and a TGI (MDA-MB-435) of over 100 µM. It also gave a TGI (MDA-N) of over 100 µM, a TGI (MOLT-4 leukemia) of 68.2 µM and a TGI (NCI-H226 lung) of 90 µM. The TGI (NCI-H23 lung) was 37.2 µM, the TGI (NCI-H460 lung) was over 100 µM and the TGI (NCI-H522 lung) was 69.7 µM. It also gave a TGI (NCI/ADR-RES ovarian) of over 100 µM, a TGI (OVCAR-3 ovarian) of 57 µM and a TGI (OVCAR-4 ovarian) of over 100 µM. The TGI (OVCAR-5 ovarian) was over 100 µM, the TGI (OVCAR-8 ovarian) was over 100 µM and the TGI (PC-3 prostate) was over 100 µM. It also gave a TGI (RPMI-8226 leukemia) of 63.2 µM, a TGI (RXF 393 renal) of over 100 µM and a TGI (SF-268 CNS) of over 100 µM. The TGI (SF-295 CNS) was over 100 µM, the TGI (SF-539 CNS) was over 100 µM and the TGI (SK-MEL-2 melanoma) was 53.7 µM. For the same compound, the TGI (SK-MEL-28 melanoma) was over 100 µM, the TGI (SK-MEL-5 melanoma) was 48.1 µM and the TGI (SK-OV-3 ovarian) was 51.4 µM. The TGI (SN12C renal) was over 100 µM, the TGI (SNB-19 CNS) was over 100 µM and the TGI (SNB-75 CNS) was over 100 µM. The TGI (SR leukemia) was 25 µM, the TGI (SW-620 colon) was over 100 µM and the TGI (T-47D breast) was 77.9 µM. It also gave a TGI (TK-10 renal) of over 100 µM, a TGI (U251 CNS) of over 100 µM and a TGI (UACC-257 melanoma) of 48.5 µM. For the same compound, the TGI (UACC-62 melanoma) was 66.9 µM and the TGI (UO-31 renal) was 67.2 µM.
